Experimental data from patent US20160052898A1, “NOVEL COMPOUNDS” (BAYER PHARMA AKTIENGESELLSCHAFT, priority 2013, published 2016).

Experiments:
Type in all cases: cell-based
[1] = test system: constitutive active colorectal cancer cell (CRC) Wnt pathway; assay: HCT116 Super TopFlash cellular reporter assay (constitutive active Wnt pathway); conditions: Homo sapiens, HCT-116, 36 h, HCT116 TOP reporter cells, luciferase expression, 36 hours incubation, 50 μM to 15 nM
Method in brief: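 HCT116 cells (β-catenin ΔS45) stably carrying Super TopFlash, with a parallel FOP-control line, were plated 24 h ahead. They were exposed 36 h at 37 °C, 5% CO2 to compound from a 50 μM–15 nM, 3.16-fold pre-dilution series in CAFTY buffer (pH 7.4, 2 mM Ca2+, 0.01% BSA). Wnt signalling was read as luciferase luminescence.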

[2] = test system: HCT116 FOP control reporter cell line; assay: HCT116 FOP control vector reporter assay (non-functional TCF elements); conditions: Homo sapiens, HCT-116, 36 h, HCT116 FOP control reporter cells, luciferase expression, 36 hours incubation, 50 μM to 15 nM; read-out: HCT116 FOPFlash IC50
Method in brief: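 Stable HCT116 line carrying the non-functional FOP luciferase construct, 10000 cells/well plated 24 hrs before. Compounds 50 μM to 15 nM (3.16-fold steps) in CAFTY buffer pH 7.4 with 2 mM Ca2+, 36 hours at 37° C; luciferase luminescence read.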

[3] = test system: wildtype Wnt pathway; assay: HEK293 Super TopFlash cellular reporter assay, Wnt-3a stimulated (wildtype Wnt pathway); conditions: Homo sapiens; HEK293 TOP reporter cells, EC50 concentration of recombinant Wnt-3a, 16 hours incubation; read-out: HEK TOP OncoFlash IC50
Experimental: (§1) In order to determine the inhibitory activity of compounds for the WT Wnt signaling pathway, the Super TopFlash vector respectively FOP vector were cotransfected with pcDNA3 into HEK293 and stable transfected HEK293 cells were isolated by antibiotic selection. […] The recombinant human Wnt-3a was thereby used between 2500 and 5 ng/ml in two-fold dilution steps. […] Measurement of luciferase expression was done as described for the constitutive active Wnt assay.
In order to discover and characterize small molecules which inhibit the wildtype Wnt pathway, a cellular reporter assay was employed. The corresponding assay cell was generated by transfection of the mammalian cell line HEK293 (ATCC, #CRL-1573) with the Super TopFlash vector (Morin, Science 275, 1997, 1787-1790; Molenaar et al., Cell 86 (3), 1996, 391-399). The HEK293 cell line is cultivated at 37° C. and 5% CO2 in DMEM (Life Technologies, #41965-039), supplemented with 2 mM glutamine, 20 mM HEPES, 1.4 mM pyruvate, 0.15% Na-bicarbonate and 10% foetal bovine serum (GIBCO, #10270). Stable transfectants were generated by selection with 300 μg/ml Hygromycin.
(§2) In preparation of the assay, the two cell lines were plated 24 hours before beginning the test at 10000 cells per well in a 384 micro titre plate (MTP) in […] growth medium. […] The recombinant human Wnt-3a was thereby applied between 2500 and 5 ng/ml in two-fold dilution steps. Selective inhibitory activity for small molecules on the wildtype Wnt pathway was determined after parallel incubation of both (TOP and FOP) HEK293 reporter cell lines with a compound dilution series from 50 μM to 15 nM in steps of 3.16-fold dilutions in CAFTY buffer (130 mM NaCl, 5 mM KCl, 20 mM HEPES, 1 mM MgCl2, 5 mM NaHCO3, pH 7.4) containing 2 mM Ca^2+ and 0.01% BSA.
(§3) The compounds were thereby serially prediluted in 100% DMSO and thereafter 50 fold into the CAFTY compound dilution buffer (described above).

[4] = test system: HEK293 FOP control reporter cell line; assay: HEK293 FOP control vector reporter assay; conditions: Homo sapiens; HEK293 FOP control reporter cells, EC50 concentration of recombinant Wnt-3a, 16 hours incubation; read-out: HEK FOP IC50
Experimental: as §1
In a parallel approach, HEK293 cells were cotransfected with the FOP control vector and pcDNA3. The FOP vector is identical to the TOP construct, but it contains instead of functional TCF elements a randomized, non-functional sequence. For this transfection a stable transfected cell line was generated as well, based on selection with Geneticin (1 mg/ml).
as §2, §3

Compound	IC50 [1]	IC50 [2]	IC50 [3]	IC50 [4]
COc1ccc(NC(=O)c2ccc(-c3ccccc3)cc2)cc1NC(=O)CN1C[C@@H]2C[C@H]1CO2 [Example 33, N-(4-methoxy-3-{[(1S,4S)-2-oxa-5-azabicyclo[2.2.1]hept-5-ylacetyl]amino}phenyl)biphenyl-4-carboxamide]	435 nM	≥ 50000 nM	400 nM	9000 nM
COc1ccc(NC(=O)c2ccc(-c3ccccc3)cc2)cc1NC(=O)CN1CCN(C2CC2)CC1 [Example 35, N-(3-{[(4-cyclopropylpiperazin-1-yl)acetyl]amino}-4-methoxyphenyl)biphenyl-4-carboxamide]	1180 nM	≥ 50000 nM	920 nM	29000 nM
COc1ccc(NC(=O)c2ccc(-c3ccccc3)cc2)cc1NC(=O)CN1CCCOCC1 [Example 36, N-{4-methoxy-3-[(1,4-oxazepan-4-ylacetyl)amino]phenyl}biphenyl-4-carboxamide]	1550 nM	≥ 50000 nM	820 nM	9900 nM
COc1ccc(NC(=O)c2ccc(-c3ccccc3)cc2)cc1NC(=O)CN1CCSCC1 [Example 37, N-{4-methoxy-3-[(thiomorpholin-4-ylacetyl)amino]phenyl}biphenyl-4-carboxamide]	1250 nM	≥ 50000 nM	640 nM	≥ 50000 nM
COc1ccc(NC(=O)c2ccc(-c3ccccc3)cc2)cc1NC(=O)CN1CCC(OC)CC1 [Example 39, N-(4-methoxy-3-{[(4-methoxypiperidin-1-yl)acetyl]amino}phenyl)biphenyl-4-carboxamide]	2200 nM	≥ 50000 nM	1100 nM	≥ 50000 nM
COc1ccc(NC(=O)c2ccc(-c3ccccc3)cc2)cc1NC(=O)CN1CCC[C@H](O)C1 [Example 40, N-[3-({[(3S)-3-hydroxypiperidin-1-yl]acetyl}amino)-4-methoxyphenyl]biphenyl-4-carboxamide]	2300 nM	≥ 50000 nM	46 nM	12000 nM
COc1ccc(NC(=O)c2ccc(-c3ccccc3)cc2)cc1NC(=O)CN1CCOC(C)(C)C1 [Example 41, N-(3-{[(2,2-dimethylmorpholin-4-yl)acetyl]amino}-4-methoxyphenyl)biphenyl-4-carboxamide]	2400 nM	≥ 50000 nM	710 nM	≥ 50000 nM
COc1ccc(NC(=O)c2ccc(-c3ccccc3)cc2)cc1NC(=O)CN1CC[C@@H](O)C1 [Example 43, N-[3-({[(3R)-3-hydroxypyrrolidin-1-yl]acetyl}amino)-4-methoxyphenyl]biphenyl-4-carboxamide]	2650 nM	≥ 50000 nM	1200 nM	≥ 50000 nM
COc1ccc(NC(=O)c2ccc(-c3ccccc3)cc2)cc1NC(=O)CN1CCOC[C@@H]1C [Example 48, N-[4-methoxy-3-({[(3S)-3-methylmorpholin-4-yl]acetyl}amino)phenyl]biphenyl-4-carboxamide]	856 nM	12000 nM	2800 nM	≥ 50000 nM
COc1ccc(NC(=O)c2ccc(-c3ccccc3)cc2)cc1NC(=O)C(C)N1CCOCC1 (stereo not drawn) [Example 53, N-(4-methoxy-3-{[2-(morpholin-4-yl)propanoyl]amino}phenyl)biphenyl-4-carboxamide]	480 nM	≥ 50000 nM	290 nM	6200 nM
COc1ccc(NC(=O)c2ccc(-c3ccccc3)cc2)cc1NC(=O)[C@H](C)N1CC2CCC(C1)O2 [Example 56, N-(4-methoxy-3-{[(2S)-2-(8-oxa-3-azabicyclo[3.2.1]oct-3-yl)propanoyl]amino}phenyl)biphenyl-4-carboxamide]	222 nM	≥ 50000 nM	4000 nM	≥ 50000 nM
CC(C(=O)Nc1cc(NC(=O)c2ccc(-c3ccccc3)cc2)ccc1OC(F)(F)F)N1CC2CCC(C1)O2 (stereo not drawn) [Example 58, N-[3-{[2-(8-oxa-3-azabicyclo[3.2.1]oct-3-yl)propanoyl]amino}-4-(trifluoromethoxy)phenyl]biphenyl-4-carboxamide]	54 nM	≥ 50000 nM	2200 nM	35000 nM
C[C@@H](C(=O)Nc1cc(NC(=O)c2ccc(-c3ccccc3)cc2)ccc1OC(F)(F)F)N1CC2CCC(C1)O2 [Example 59, N-[3-{[(2S)-2-(8-oxa-3-azabicyclo[3.2.1]oct-3-yl)propanoyl]amino}-4-(trifluoromethoxy)phenyl]biphenyl-4-carboxamide]	111 nM	40000 nM	1700 nM	≥ 50000 nM
CC(C(=O)Nc1cc(NC(=O)c2ccc(-c3ccccc3)cc2)ccc1OC(F)(F)F)N1CCOCC1 (stereo not drawn) [Example 61, N-[3-{[2-(morpholin-4-yl)propanoyl]amino}-4-(trifluoromethoxy)phenyl]biphenyl-4-carboxamide]	130 nM	≥ 50000 nM	140 nM	≥ 50000 nM
C[C@@H](C(=O)Nc1cc(NC(=O)c2ccc(-c3ccccc3)cc2)ccc1OC(F)(F)F)N1CCOCC1 [Example 62, N-[3-{[(2S)-2-(morpholin-4-yl)propanoyl]amino}-4-(trifluoromethoxy)phenyl]biphenyl-4-carboxamide]	61 nM	≥ 50000 nM	55 nM	8000 nM
O=C(CN1CCOCC1)Nc1cc(NC(=O)c2ccc(-c3ccccc3)cc2)ccc1OC(F)(F)F [Example 66, N-{3-[(morpholin-4-ylacetyl)amino]-4-(trifluoromethoxy)phenyl}biphenyl-4-carboxamide]	39.2 nM	≥ 50000 nM	1600 nM	≥ 50000 nM
COc1ccc(NC(=O)c2ccc(-c3cccc(C)c3)cc2)cc1NC(=O)CN1CCOCC1 [Example 71, N-{4-methoxy-3-[(morpholin-4-ylacetyl)amino]phenyl}-3′-methylbiphenyl-4-carboxamide]	2250 nM	≥ 50000 nM	2500 nM	25000 nM
COc1ccc(NC(=O)c2ccc(-c3cccc(C#N)c3)cc2)cc1NC(=O)CN1CCOCC1 [Example 72, 3′-cyano-N-{4-methoxy-3-[(morpholin-4-ylacetyl)amino]phenyl}biphenyl-4-carboxamide]	3750 nM	≥ 50000 nM	1300 nM	≥ 50000 nM
COc1ccc(NC(=O)c2ccc(-c3cccc(Cl)c3)cc2)cc1NC(=O)CN1CCOCC1 [Example 73, 3′-chloro-N-{4-methoxy-3-[(morpholin-4-ylacetyl)amino]phenyl}biphenyl-4-carboxamide]	1450 nM	≥ 50000 nM	1500 nM	32000 nM
O=C(CN1CCOCC1)Nc1cc(NC(=O)c2ccc(-c3cccc(F)c3)cc2)ccc1OC(F)(F)F [Example 74, 3′-fluoro-N-{3-[(morpholin-4-ylacetyl)amino]-4-(trifluoromethoxy)phenyl}biphenyl-4-carboxamide]	47 nM	≥ 50000 nM	140 nM	8300 nM
O=C(CN1CCOCC1)Nc1cc(NC(=O)c2ccc(-c3ccc(F)cc3)cc2)ccc1OC(F)(F)F [Example 75, 4′-fluoro-N-{3-[(morpholin-4-ylacetyl)amino]-4-(trifluoromethoxy)phenyl}biphenyl-4-carboxamide]	145 nM	≥ 50000 nM	850 nM	40000 nM
